Results: patent US7501410B2, “Methods of inhibiting BTK and SYK protein kinases” (Roche Palo Alto LLC, priority 2006, dated 2009)

What was measured:
[1] = biological target: T1, Spleen Tyrosine Kinase (SYK) aa 360-635 (Homo sapiens, UniProt P43405); assay: Determination of IC50 of Spleen Tyrosine Kinase (SYK) inhibition, 33P kinase assay; format: biochemical; settings: recombinant human SYK360-635, 20 μM ATP; read-out: IC50 (μM) SYK Assay
T1 construct: truncated construct of Spleen Tyrosine Kinase aa 360-635; made in house
Procedure: Determination of IC50 of Spleen Tyrosine Kinase (SYK) Inhibition
The SYK kinase assay is a standard kinase assay adapted to a 96 well plate format. This assay is performed in 96-well format for IC50 determination with 8 samples which represented 10 half log dilutions and a 40 μL reaction volume. The assay measures the incorporation of radiolabeled ^33P γATP into an N-terminally biotinylated peptide substrate, derived from naturally occurring phosphoacceptor consensus sequence (Biotin-11aa DY*E). Phosphorylated products were detected upon termination of reactions with EDTA and the addition of Streptavidin coated beads. • Assay plates: 96-well MultiScreen 0.65 um filter plates (Millipore Cat. No.: MADVNOB10) • Streptavidin coated beads: Streptavidin Sepharose TM, suspension 5.0 mL, in 50 mM EDTA/PBS diluted (1:100), (Amersham, Cat. No.: 17-5113-01) • Compounds: 10 mM in 100% dimethylsulfoxide (DMSO), final conc.: compound 0.003-100 uM in 10% DMSO • Enzyme: SYK RPA purified, truncated construct of Spleen Tyrosine Kinase aa 360-635, stock solution 1 mg/mL, MW: 31.2 KDa, final conc.:0.0005 μM. • Peptide 1: biotinylated peptide is derived from a naturally occurring phosphor-acceptor consensus sequence (Biotin-[…]), special order from QCB, stock solution 20 mM, final conc.: 5.0 μM. • ATP: Adenosine-5′-triphosphate 20 mM, (ROCHE Cat. No.:93202720), final concentration: 20 μM • Buffer: HEPES: 2-Hydroxyethyl piperazine-2-ethanesulfonic acid (Sigma, Cat. No.: H-3375) final concentration: 50 mM HEPES pH7.5 • BSA: Bovine Serum Albumin Fraction V, fatty acid free (Roche Diagnostics GmbH, Cat. No. 9100221) diluted to a final concentration of 0.1% • EDTA: EDTA stock solution 500 mM, (GIBCO, Cat. No.: 15575-038) final concentration: 0.1 mM • DTT: 1,4-Dithiothreitol (Roche Diagnostics GmbH, Cat. No.: 197777), final conc.: 1 mM • MgCl2×6H2O: MERCK, Cat. No.: 105833.1000, final concentration: 10 mM • Assay Dilution Buffer (ADB): 50 mM HEPES, 0.1 mM EGTA, 0.1 mM Na Vanadate, 0.1 mM β-glycerophosphate, 10 mM MgCl2, 1 mM DTT, 0,1% BSA, pH 7.5 • Bead wash buffer: 10 g/L PBS (Phosphate buffered saline) with 2M NaCl+1% phosphoric acid Experimental Method:
In 40 μL volume, 26 μL of ADB diluted, purified recombinant human SYK360-635 [0.5 nM] was mixed with 4 μL of 10× concentrations of the test compounds, [usually 100 μM-0.003 μM] in [10%] DMSO and the mixture was incubated for 10 min at RT.
The kinase reaction was initiated by the addition of 10 μL 4× substrate cocktail containing the DYE peptide substrate [0 or 5 μM], ATP [20 μM] and […] [2 μCi/rxn]. After incubation at 30° C. for 15 min, the reaction was terminated by the transfer of 25 μL of the reaction sample to a 96 well 0.65 um Millipore MADVNOB membrane/plate containing 200 μL 5 mM EDTA and 20% Streptavidine coated beads in PBS.
The unbound radionucleotides were washed under vacuum with 3×250 μL 2M NaCl; 2×250 μL 2M NaCl+1% phosphoric acid; 1×250 μL H2O. After the last wash membrane/plates were transferred to an adaptor plate, heat dried for 15 min at 60° C., and 50 μL scintillation cocktail was added to each well and 4 h later the amount of radioactivity was counted in a top counter.
The IC50 was calculated using a non-linear curve fit with XLfit software (ID Business Solution Ltd., Guilford, Surrey, UK). […] Representative results are in Table 1.

[2] = biological target: T2, Bruton's Tyrosine Kinase (Btk) (Homo sapiens, UniProt Q06187); assay: Determination of IC50 of Bruton's Tyrosine Kinase (Btk) inhibition, 33P filtration assay; format: biochemical; settings: His-tagged full-length Btk, 100 μM ATP
T2 construct: 5-10 nM Btk enzyme (His-tagged, full-length); His tag
T2 sequence (Q06187 whole entry): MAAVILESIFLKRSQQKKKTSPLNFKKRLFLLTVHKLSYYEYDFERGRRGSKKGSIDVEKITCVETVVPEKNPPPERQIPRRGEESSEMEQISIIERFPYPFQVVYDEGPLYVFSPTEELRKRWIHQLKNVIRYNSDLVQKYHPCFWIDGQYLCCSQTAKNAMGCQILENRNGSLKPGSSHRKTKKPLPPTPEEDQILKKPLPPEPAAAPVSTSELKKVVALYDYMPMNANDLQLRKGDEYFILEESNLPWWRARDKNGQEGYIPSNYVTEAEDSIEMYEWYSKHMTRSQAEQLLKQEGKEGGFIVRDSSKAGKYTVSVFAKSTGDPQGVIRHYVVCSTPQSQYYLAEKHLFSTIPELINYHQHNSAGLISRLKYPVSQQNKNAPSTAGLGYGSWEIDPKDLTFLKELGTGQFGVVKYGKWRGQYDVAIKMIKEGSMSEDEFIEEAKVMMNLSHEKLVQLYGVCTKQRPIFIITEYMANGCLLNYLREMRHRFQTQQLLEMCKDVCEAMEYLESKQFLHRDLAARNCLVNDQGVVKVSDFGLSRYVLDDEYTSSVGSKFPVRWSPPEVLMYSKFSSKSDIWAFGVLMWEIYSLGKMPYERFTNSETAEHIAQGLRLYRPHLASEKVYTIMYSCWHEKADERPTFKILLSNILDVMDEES
Text: Determination of IC50 of Bruton's Tyrosine Kinase (Btk) Inhibition
The assay is a capture of radioactive ^33P phosphorylated product through filtration. The interactions of Btk, biotinylated SH2 peptide substrate (Src homology), and ATP lead to phosphorylation of the peptide substrate. Biotinylated product is bound streptavidin sepharose beads. All bound, radiolabeled products are detected by scintillation counter.
Plates assayed are 96-well polypropylene (Greiner) and 96-well 1.2 μm hydrophilic PVDF filter plates (Millipore). Concentrations reported here are final assay concentrations: 10-100 μM compounds in DMSO (Burdick and Jackson), 5-10 nM Btk enzyme (His-tagged, full-length), 30 μM peptide substrate (Biotin-Aca-[…]-NH2), 100 μM ATP (Sigma), 8 mM imidazole (Sigma, pH 7.2), 8 mM glycerol-2-phosphate (Sigma), 200 μM EGTA (Roche Diagnostics), 1 mM MnCl2 (Sigma), 20 mM MgCl2 (Sigma), 0.1 mg/ml BSA (Sigma), 2 mM DTT (Sigma), 1 μCi ^33P ATP (Amersham), 20% streptavidin sepharose beads (Amersham), 50 mM EDTA (Gibco), 2 M NaCl (Gibco), 2 M NaCl w/1% phosphoric acid (Gibco), microscint-20 (Perkin Elmer).
IC50 determinations are calculated from 10 data points per compound utilizing data produced from a standard 96-well plate assay template. One control compound and seven unknown inhibitors were tested on each plate and each plate was run twice. Typically, compounds were diluted in half-log starting at 100 μM and ending at 3 nM. The control compound was staurosporine. Background was counted in the absence of peptide substrate. Total activity was determined in the presence of peptide substrate. The following protocol was used to determine BTK inhibition.
1) Sample preparation: The test compounds were diluted at half-log increments in assay buffer (imidazole, glycerol-2-phosphate, EGTA, MnCl2, MgCl2, BSA).
2) Bead preparation • a.) rinse beads by centrifuging at 500 g • b.) reconstitute the beads with PBS and EDTA to produce a 20% bead slurry
3) Pre-incubate reaction mix without substrate (assay buffer, DTT, ATP, ^33P ATP) and mix with substrate (assay buffer, DTT, ATP, ^33P ATP, peptide substrate) 30° C. for 15 min.
4) To start assay, pre-incubate 10 μL BTK in enzyme buffer (imidazole, glycerol-2-phosphate, BSA) and 10 μL of test compounds for 10 min at RT.
5) Add 30 μL reaction mixture without or with substrate to BTK and compounds.
6) Incubate 50 μL total assay mix for 30 min at 30° C.
7) Transfer 40 μL of assay to 150 μL bead slurry in filter plate to stop reaction.
8) Wash filter plate after 30 min, with following steps • a. 3 ×250 μL NaCl • b. 3×250 μL NaCl containing 1% phosphoric acid • c. 1×250 μL H2O
9) Dry plate for 1 h at 65° C. or overnight at RT
10) Add 50 μL microscint-20 and count ^33P cpm on scintillation counter.
Calculate percent activity from raw data in cpm percent activity=(sample−bkg)/(total activity−bkg)×100

| Molecule | IC50 [1] | IC50 [2] |
| --- | --- | --- |
| Cc1cc(Nc2nn(CC(F)(F)F)c(=O)c3ccccc23)n[nH]1 [Example A-5, 4-(5-methyl-1H-pyrazol-3-ylamino)-2-(2,2,2-trifluoro-ethyl)-2H-phthalazin-1-one] | 7.68 µM | 8.22 µM |
| Cc1cc(Nc2nn(Cc3cccc(C(=O)O)c3)c(=O)c3ccccc23)n[nH]1 [Example A-24, 3-[4-(5-methyl-1H-pyrazol-3-ylamino)-1-oxo-1H-phthalazin-2-ylmethyl]-benzoic acid] | 24.9 µM | 1.75 µM |
| Cc1cc(Nc2nn(C(C)C)c(=O)c3cc(OCCCS(=O)(=O)N(C)C)ccc23)n[nH]1 [Example ZD-3, 3-[3-Isopropyl-1-(5-methyl-1H-pyrazol-3-ylamino)-4-oxo-3,4-dihydro-phthalazin-6-yloxy]-propane-1-sulfonic acid dimethylamide] | 3.02 µM | 0.86 µM |
| Cc1cc(Nc2nn(C(C)C)c(=O)c3cc(F)ccc23)n[nH]1 [Example E-2, 7-Fluoro-2-isopropyl-4-(5-methyl-1H-pyrazol-3-ylamino)-2H-phthalazin-1-one] | 7.61 µM | 9.53 µM |
| Cc1cc(Nc2nn(-c3ccc(F)cc3)c(=O)c3ccccc23)n[nH]1 [Example A-7, 2-(4-fluoro-phenyl)-4-(5-methyl-1H-pyrazol-3-ylamino)-2H-phthalazin-1-one] | – | 6.3 µM |
| Cc1cc(Nc2nn(C(C)C)c(=O)c3cc(N(C)Cc4ccncc4)ccc23)n[nH]1 [Example I-2, 2-Isopropyl-4-(5-methyl-1H-pyrazol-3-ylamino)-7-(methyl-pyridin-4-ylmethyl-amino)-2H-phthalazin-1-one] | 0.392 µM | 0.231 µM |
| Cc1cc(Nc2nn(C(C)C)c(=O)c3cc(O)ccc23)n[nH]1 [Example G-6, 7-Hydroxy-2-isopropyl-4-(5-methyl-1H-pyrazol-3-yl-amino)-2H-phthalazin-1-one] | 2.52 µM | 1.28 µM |
| Cc1cc(Nc2nn(Cc3cccnc3)c(=O)c3ccccc23)[nH]n1 [Example A-18, 4-(5-methyl-2H-pyrazol-3-ylamino)-2-pyridin-3-ylmethyl-2H-phthalazin-1-one] | 6.53 µM | – |
| Cc1ccc(-n2nc(Nc3cc(C)[nH]n3)c3ccccc3c2=O)cc1 [Example A-6, 4-(5-methyl-1H-pyrazol-3-ylamino)-2-p-tolyl-2H-phthalazin-1-one] | – | 38.2 µM |
| Cc1cc(Nc2nn(C(C)C)c(=O)c3ccccc23)n[nH]1 [Example A-23, 2-isopropyl-4-(5-methyl-1H-pyrazol-3-ylamino)-2H-phthalazin-1-one] | – | 50.9 µM |
| Cc1ccc(-n2nc(Nc3cc[nH]n3)c3ccccc3c2=O)cc1 [Example A-10, 4-(1H-pyrazol-3-yl-amino)-2-p-tolyl-2H-phthalazin-1-one] | – | 16.6 µM |

More lines, now with the values ahead:

| IC50 [1] | IC50 [2] | Molecule |
| --- | --- | --- |
| 78.1 µM | – | Cc1cc(Nc2nn(Cc3ccccn3)c(=O)c3ccccc23)[nH]n1 [Example A-22, 4-(5-methyl-2H-pyrazol-3-ylamino)-2-pyridin-2-ylmethyl-2H-phthalazin-1-one] |
| 0.525 µM | – | Cc1cc(Nc2nn(-c3ccc(C(F)(F)F)cc3)c(=O)c3ccccc23)[nH]n1 [Example A-25, 4-(5-methyl-1H-pyrazol-3-ylamino)-2-(4-trifluoromethyl-phenyl)-2H-phthalazin-1-one] |
| 22.9 µM | 38.6 µM | Cc1cc(Nc2nn(Cc3cc(F)ccc3F)c(=O)c3ccccc23)n[nH]1 [Example A-13, 2-(2,5-difluoro-benzyl)-4-(5-methyl-1H-pyrazol-3-yl-amino)-2H-phthalazin-1-one] |
| 0.666 µM | 0.782 µM | Cc1cc(Nc2nn(C(C)C)c(=O)c3cc(CO)ccc23)[nH]n1 [Example M-9, 7-Hydroxymethyl-2-isopropyl-4-(5-methyl-1H-pyrazol-3-ylamino)-2H-phthalazin-1-one] |
| – | 11.4 µM | Cc1cc(Nc2nn(CC(C)C)c(=O)c3ccccc23)n[nH]1 [Example A-4, 2-isobutyl-4-(5-methyl-1H-pyrazol-3-ylamino)-2H-phthalazin-1-one] |
| 56.9 µM | – | Cc1cc(Nc2nn(C(C)C)c(=O)c3ccc(CO)cc23)n[nH]1 [Example M-10, 6-Hydroxymethyl-2-isopropyl-4-(5-methyl-1H-pyrazol-3-yl-amino)-2H-phthalazin-1-one] |
| – | > 100 µM | Cc1cc(Nc2nn(Cc3ccccc3)c(=O)c3ccccc23)n[nH]1 [Example E-1, 2-Benzyl-4-(5-methyl-1H-pyrazol-3-ylamino)-2H-phthalazin-1-one] |
| 1.25 µM | – | COCc1ccc2c(Nc3cc(C)[nH]n3)nn(C(C)C)c(=O)c2c1 [Example K-1, 2-Isopropyl-7-methoxymethyl-4-(5-methyl-1H-pyrazol-3-ylamino)-2H-phthalazin-1-one] |
| – | 5.87 µM | COc1ccc(-n2nc(Nc3cc(C)[nH]n3)c3ccccc3c2=O)cc1 [Example A-9, 2-(4-methoxy-phenyl)-4-(5-methyl-1H-pyrazol-3-ylamino)-2H-phthalazin-1-one] |
| – | 1.25 µM | 4-(5-Methyl-2H-pyrazole-3-ylamino)-phenyl-2H-phthalazin-1-one [Example A-1] |
| – | 70.5 µM | Cc1cc(Nc2nn(C)c(=O)c3ccccc23)n[nH]1 [Example A-3, 2-methyl-4-(5-methyl-1H-pyrazol-3-yl-amino)-2H-phthalazin-1-one] |
